Consider 16 compounds from ChEMBL document CHEMBL1145232, “Synthesis of the naphthalene-derived inhibitors against Cdc25A dual-specificity protein phosphatase and their biological activity” (Bioorg Med Chem Lett, 2005).

By IC50 is commonly meant the concentration at which inhibition is half-maximal. Lower therefore signals greater potency.

≈ marks a conversion by molar mass, not a printed value. Some results are limits rather than exact numbers.

The test is described as follows: In vitro inhibitory concentration against Cdc25A protein phosphatase.
As for `CCC(O)c1c(C/C=C/CO)cc2c(c1OC)C(=O)C=C(OC)C2=O` (stereo unspecified), the IC50 was determined as 1.86 µg/mL (≈ 5.37 µM).
The result for `COC1=CC(=O)c2c(cc(C/C=C/CO)c(C(O)c3ccccc3)c2OC)C1=O` (stereo unspecified) reads 2.74 µg/mL (≈ 6.95 µM).
The result for `CCCC[C@H]1O[C@@H](CC(=O)O)Cc2cc3c(c(O)c21)C(=O)C=C(NC)C3=O` (racemic) reads “>= 10 ug ml-1”; that for `CNC1=CC(=O)c2c(cc(C/C=C/CO)c(C(O)c3ccccc3)c2OC)C1=O` (stereo unspecified), above 10 µg/mL; that for `CCCCCC(O)c1c(C/C=C/CO)cc2c(c1OC)C(=O)C=C(OC)C2=O` (stereo unspecified), 1.6 µg/mL (≈ 4.12 µM).
The result for `COc1cc(OCc2ccccc2)c2c(OC)cc(C[C@@H]3CCOC(C)(C)O3)cc2c1OC` reads above 10 µg/mL.
For the compound `CNC1=CC(=O)c2c(OC)cc(C[C@@H]3CCOC(C)(C)O3)cc2C1=O`, the IC50 was above 10 µg/mL.
With `COC1=CC(=O)c2c(OC)cc(C[C@@H]3CCOC(C)(C)O3)cc2C1=O` the figure was 0.4 µg/mL (≈ 1.15 µM); with `CCC(O)c1c(C/C=C/CO)cc2c(c1OC)C(=O)C=C(NC)C2=O` (stereo unspecified), above 10 µg/mL.
Regarding `COC1=CC(=O)c2c(OC)cc(OC)cc2C1=O`, the IC50 was determined as 0.4 µg/mL (≈ 1.61 µM).
With `CCCCC(O)c1c(C/C=C/CO)cc2c(OC)c(OC)cc(OCc3ccccc3)c2c1OC` (stereo unspecified) the figure was above 10 µg/mL.
With `CCCCC(O)c1c(C/C=C/CO)cc2c(c1OC)C(=O)C=C(OC)C2=O` (stereo unspecified) the figure was 1.77 µg/mL (≈ 4.73 µM); with `CCCCCC(O)c1c(C/C=C/CO)cc2c(c1OC)C(=O)C=C(NC)C2=O` (stereo unspecified), above 10 µg/mL.
On to `CCCCC(O)c1c(C/C=C/CO)cc2c(c1O)C(O)=C/C(=N\C)C2=O` (stereo unspecified), for which the IC50 was above 10 µg/mL.
With `CNC1=CC(=O)c2c(OC)cc(COC)cc2C1=O` the figure was above 10 µg/mL; with `CCCCC(O)c1c(C/C=C/CO)cc2c(c1O)C(=O)C=C(OC)C2=O` (stereo unspecified), 1.51 µg/mL (≈ 4.19 µM).
